Assays:
[1] = test system: AKT1 (pS473); assay: Detection of AKT1 phosphorylation in HeLa cells (western blot); assay type: cell-based; conditions: 1.25 μmol/10^7 cells, 20 min, then EGF 5 min
Protocol: HeLa cells were grown to confluency in 6 cm plates and then serum starved overnight in OptiMEM. Stock solutions of compounds were prepared in DMSO as before and diluted to the final indicated concentration in 2 mL of OptiMEM media before adding to cells. Cells were incubated at 37° C. for 20 min and then stimulated with […] EGF (ThermoFisher) for 5 min. Media was then removed and cells washed once with HBSS. 1.5 mL of HBSS was then added to each plate. Cells were detached using a cell scraper, pelleted by centrifugation at 1,000 rcf for 5 min and the pellet processed using MPER™ Mammalian Protein Extraction Reagent (ThermoFisher) with the addition of Halt Protease Inhibitor Cocktail (ThermoFisher) and 1 mM sodium orthovanadate. Samples were resolved by electrophoresis using 4-20% SDS-polyacrylamide gels (Bio-Rad) under denaturing and reducing conditions. Proteins were then electrotransferred to a PVDF membrane (Bio-Rad). The membrane was blocked with 3% BSA and then subjected to immunoblot analysis using AKT/MAPK Signaling Pathway Antibody Cocktail (ab151279) (Abcam) and secondary goat anti-rabbit IgG-HRP (sc-2030) (Santa Cruz Biotechnology). […]
Assays were performed in 3 biological replicates. Western blots were analyzed using ImageJl. […]

[2] = target: T1, SNAP25 (Homo sapiens, UniProt P60880); assay: Acyl resin-assisted capture detection of SNAP25 palmitoylation in HeLa cells; assay type: cell-based; conditions: 1.25 μmol/10^7 cells, relative to vehicle
T1 construct: we detected the palmitoylation levels of eight known palmitoylated proteins after treatment with 1; endogenous in cells; host or cells: HeLa
T1 sequence (P60880 whole entry): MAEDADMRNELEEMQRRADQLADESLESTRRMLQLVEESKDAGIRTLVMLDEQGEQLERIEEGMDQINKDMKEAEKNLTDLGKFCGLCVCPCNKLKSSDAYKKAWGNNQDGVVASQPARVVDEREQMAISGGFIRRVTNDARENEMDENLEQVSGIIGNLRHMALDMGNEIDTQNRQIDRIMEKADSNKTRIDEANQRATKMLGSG
Protocol: HeLa cells were grown to confluency in 10 cm plates. Stock solutions of compounds were prepared in DMSO as before and diluted to the final indicated concentration in 5.5 mL of OptiMEM media before adding to cells. Cells were incubated at 37° C. for 20 min and then media removed and 3 mL of HBSS added to each plate. Cells were detached using a cell scraper, pelleted by centrifugation at 1,000 rcf for 5 min and the pellet processed using a CAPTUREome S-Palmitoylated Protein Kit (Badrilla, UK) according to the manufacturer's protocol. Samples were resolved by electrophoresis using 4-20% SDS-polyacrylamide gels (Bio-Rad) under denaturing and reducing conditions. Proteins were then electrotransferred to a PVDF membrane (Bio-Rad). […]
Assays were performed in 3 biological replicates. […] Western blots were analyzed using ImageJ^1. […]

- reduction of palmitoylation level of SNAP25 [2]: > 80%
SMILES: CCCCCCCCNC(=O)[C@@H](N)CS [compound 1, H2N-L-Cys-Oct]
- AKT1 phosphorylation after EGF stimulation [1]: significant decrease
